According to ChEMBL document CHEMBL4819090, “Discovery of a new series of PI3K-δ inhibitors from Virtual Screening” (Bioorg Med Chem Lett, 2021):
pIC50: −log10 of the molar value.

Tests used:
[1] = target: Phosphatidylinositol 4,5-bisphosphate 3-kinase catalytic subunit gamma isoform (Homo sapiens, UniProt P48736); assay: Inhibition of PI3Kgamma (unknown origin) by HTRF assay
[2] = Clearance in Wistar Han rat at 2 mg/kg, iv; format: ADME, organism-based; conditions: in vivo
[3] = Volume of distribution in Wistar Han rat at 2 mg/kg, iv; format: ADME, organism-based; conditions: in vivo
[4] = Half life in Wistar Han rat at 2 mg/kg, iv; format: ADME, organism-based; conditions: in vivo
[5] = target: Phosphatidylinositol 4,5-bisphosphate 3-kinase catalytic subunit alpha isoform (Homo sapiens, UniProt P42336); assay: Inhibition of PI3Kalpha (unknown origin) by HTRF assay
Chain of Phosphatidylinositol 4,5-bisphosphate 3-kinase catalytic subunit alpha isoform (P42336 whole entry, canonical isoform): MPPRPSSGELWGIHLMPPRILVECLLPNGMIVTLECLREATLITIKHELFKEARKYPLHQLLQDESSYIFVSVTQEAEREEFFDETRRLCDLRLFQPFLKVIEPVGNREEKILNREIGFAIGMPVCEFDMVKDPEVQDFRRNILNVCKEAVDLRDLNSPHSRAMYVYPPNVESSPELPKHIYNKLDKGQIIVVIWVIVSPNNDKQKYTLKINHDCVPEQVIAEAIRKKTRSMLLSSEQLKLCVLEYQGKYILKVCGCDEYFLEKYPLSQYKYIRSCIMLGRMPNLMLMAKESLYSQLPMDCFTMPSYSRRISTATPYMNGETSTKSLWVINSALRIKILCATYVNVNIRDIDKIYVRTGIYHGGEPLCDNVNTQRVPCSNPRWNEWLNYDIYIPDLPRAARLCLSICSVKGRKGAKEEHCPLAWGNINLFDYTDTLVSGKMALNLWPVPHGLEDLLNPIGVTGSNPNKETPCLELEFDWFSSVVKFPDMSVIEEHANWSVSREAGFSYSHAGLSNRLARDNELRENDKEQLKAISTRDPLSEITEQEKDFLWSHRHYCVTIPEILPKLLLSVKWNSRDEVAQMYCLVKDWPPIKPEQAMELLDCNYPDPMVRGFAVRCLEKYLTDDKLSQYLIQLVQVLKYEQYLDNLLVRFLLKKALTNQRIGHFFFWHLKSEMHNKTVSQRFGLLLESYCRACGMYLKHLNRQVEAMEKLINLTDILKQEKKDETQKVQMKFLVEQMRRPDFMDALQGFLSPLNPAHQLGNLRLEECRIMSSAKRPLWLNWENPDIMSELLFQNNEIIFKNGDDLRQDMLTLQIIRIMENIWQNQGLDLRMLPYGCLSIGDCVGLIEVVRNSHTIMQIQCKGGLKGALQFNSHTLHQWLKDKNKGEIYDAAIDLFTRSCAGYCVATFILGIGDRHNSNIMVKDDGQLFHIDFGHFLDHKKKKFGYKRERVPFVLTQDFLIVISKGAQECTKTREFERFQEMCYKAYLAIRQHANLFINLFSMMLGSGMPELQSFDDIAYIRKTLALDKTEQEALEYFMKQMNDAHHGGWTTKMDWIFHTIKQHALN

[6] = target: Phosphatidylinositol 4,5-bisphosphate 3-kinase catalytic subunit beta isoform (Homo sapiens, UniProt P42338); assay: Inhibition of PI3Kbeta (unknown origin) by HTRF assay
Chain of Phosphatidylinositol 4,5-bisphosphate 3-kinase catalytic subunit beta isoform (P42338 whole entry, canonical isoform): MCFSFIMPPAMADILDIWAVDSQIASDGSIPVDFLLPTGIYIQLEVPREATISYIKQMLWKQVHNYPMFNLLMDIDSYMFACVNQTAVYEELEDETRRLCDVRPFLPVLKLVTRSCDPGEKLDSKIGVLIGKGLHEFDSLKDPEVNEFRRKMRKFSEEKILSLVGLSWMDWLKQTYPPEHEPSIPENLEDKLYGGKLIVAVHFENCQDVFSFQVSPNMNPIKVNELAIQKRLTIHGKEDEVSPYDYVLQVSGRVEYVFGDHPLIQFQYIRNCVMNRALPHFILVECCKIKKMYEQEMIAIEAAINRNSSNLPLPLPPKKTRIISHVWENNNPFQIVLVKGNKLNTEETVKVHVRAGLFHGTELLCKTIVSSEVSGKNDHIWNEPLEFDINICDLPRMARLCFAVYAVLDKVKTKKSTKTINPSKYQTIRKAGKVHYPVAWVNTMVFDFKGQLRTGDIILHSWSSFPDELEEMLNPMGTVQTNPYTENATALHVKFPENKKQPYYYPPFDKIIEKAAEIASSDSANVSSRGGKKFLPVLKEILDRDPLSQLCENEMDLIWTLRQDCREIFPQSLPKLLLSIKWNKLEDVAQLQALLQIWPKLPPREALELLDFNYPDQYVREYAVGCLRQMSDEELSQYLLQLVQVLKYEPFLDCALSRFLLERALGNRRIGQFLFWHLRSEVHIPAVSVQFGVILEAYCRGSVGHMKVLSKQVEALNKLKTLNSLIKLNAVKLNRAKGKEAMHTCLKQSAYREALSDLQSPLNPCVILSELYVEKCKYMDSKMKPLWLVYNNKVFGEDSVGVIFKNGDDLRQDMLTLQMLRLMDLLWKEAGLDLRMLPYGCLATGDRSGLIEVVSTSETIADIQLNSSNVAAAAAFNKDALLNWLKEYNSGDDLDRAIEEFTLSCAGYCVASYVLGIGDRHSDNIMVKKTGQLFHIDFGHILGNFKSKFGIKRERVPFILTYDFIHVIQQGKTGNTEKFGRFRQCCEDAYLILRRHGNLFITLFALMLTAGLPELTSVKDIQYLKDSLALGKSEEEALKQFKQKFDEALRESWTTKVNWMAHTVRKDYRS

Chain of Phosphatidylinositol 4,5-bisphosphate 3-kinase catalytic subunit gamma isoform (P48736 whole entry, canonical isoform): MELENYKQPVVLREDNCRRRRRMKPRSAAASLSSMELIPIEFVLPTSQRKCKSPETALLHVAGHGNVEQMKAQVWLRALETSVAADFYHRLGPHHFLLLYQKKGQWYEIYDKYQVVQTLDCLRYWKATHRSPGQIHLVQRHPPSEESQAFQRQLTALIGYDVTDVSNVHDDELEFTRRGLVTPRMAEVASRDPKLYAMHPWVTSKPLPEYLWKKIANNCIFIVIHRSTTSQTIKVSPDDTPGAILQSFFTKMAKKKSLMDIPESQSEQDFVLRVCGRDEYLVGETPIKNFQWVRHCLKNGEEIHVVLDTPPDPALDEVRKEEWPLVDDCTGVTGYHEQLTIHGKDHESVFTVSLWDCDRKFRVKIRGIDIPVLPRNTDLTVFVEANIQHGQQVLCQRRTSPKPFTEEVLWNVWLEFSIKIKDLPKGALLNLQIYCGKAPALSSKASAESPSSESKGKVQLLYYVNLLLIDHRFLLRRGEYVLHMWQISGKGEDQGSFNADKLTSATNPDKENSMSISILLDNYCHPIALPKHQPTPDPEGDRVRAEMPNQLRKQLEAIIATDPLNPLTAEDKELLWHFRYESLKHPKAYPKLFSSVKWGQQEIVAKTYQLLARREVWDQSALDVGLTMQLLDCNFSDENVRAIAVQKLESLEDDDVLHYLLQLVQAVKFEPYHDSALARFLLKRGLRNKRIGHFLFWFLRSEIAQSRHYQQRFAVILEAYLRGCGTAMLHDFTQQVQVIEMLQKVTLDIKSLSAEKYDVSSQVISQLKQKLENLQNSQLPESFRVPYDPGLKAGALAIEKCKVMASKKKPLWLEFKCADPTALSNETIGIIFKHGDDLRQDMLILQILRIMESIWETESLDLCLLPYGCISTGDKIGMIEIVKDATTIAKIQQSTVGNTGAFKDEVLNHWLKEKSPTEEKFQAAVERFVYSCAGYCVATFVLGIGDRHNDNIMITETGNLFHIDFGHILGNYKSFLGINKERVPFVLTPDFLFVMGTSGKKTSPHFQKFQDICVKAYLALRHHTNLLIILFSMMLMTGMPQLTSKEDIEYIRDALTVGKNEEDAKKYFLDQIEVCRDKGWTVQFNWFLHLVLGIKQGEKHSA

| pIC50 [1] | SMILES | further results |
| --- | --- | --- |
| < 5.00 | O=C1NCc2c1cc(-c1cccc(F)c1)cc2-c1cc(O)cc(F)c1 |  |
| 5.50 | O=C1NCc2c1cc(O[C@@H]1CCN(C(=O)C3CCOCC3)C1)cc2-c1cc(O)cc(F)c1 |  |
| 5.13 | C[C@@H]1CN(Cc2nnc(-c3cc4c(c(-c5cc(O)cc(F)c5)c3)CNC4=O)o2)C[C@H](C)O1 |  |
| < 5.00 | Nc1ncc(-c2cc(OC3CN(C(=O)C4CC4)C3)cc3c2CNC3=O)cc1C(F)(F)F |  |
| < 5.00 | CNc1ncc(-c2cc(OC3CN(C(=O)C4C[C@H]4C)C3)cc3c2CNC3=O)cc1C(F)(F)F (stereo partly drawn) |  |
| < 5.00 | O=C1NCc2c1cc(OC1CN(C(=O)C3CC3)C1)cc2-c1cnc(Cl)c(OC(F)F)c1 |  |
| < 5.00 | Cn1ncc2cc(-c3cc(OC4CN(C(=O)C5CC5)C4)cc4c3CNC4=O)cnc21 |  |
| < 5.00 | O=C1NCc2c1cccc2-c1cc(O)cc(F)c1 |  |
| 5.87 | O=C1NCc2c1cc(O[C@@H]1CCN(C(=O)C3CC(F)(F)C3)C1)cc2-c1cc(O)cc(F)c1 |  |

Continued, compound first:

| SMILES | pIC50 [1] | further results |
| --- | --- | --- |
| O=C1NCc2c1cc(O[C@@H]1CCN(C(=O)C3CC3)C1)cc2-c1cnc(F)c(O)c1 | 5.96 |  |
| O=C1NCc2c1cc(O[C@@H]1CCN(C(=O)C3CC3)C1)cc2-c1cncc(O)c1 | 5.51 |  |
| Cc1ncc(-c2cc(O[C@@H]3CCN(C(=O)C4CC4)C3)cc3c2CNC3=O)cc1NS(C)(=O)=O | 5.52 |  |
| O=C1NCc2c1cc(O[C@@H]1CCN(C(=O)C3CC3)C1)cc2-c1cc(O)cc(F)c1 | 5.75 |  |
| COc1ccc(-c2cc(O[C@@H]3CCN(C(=O)C4CC4)C3)cc3c2CNC3=O)cn1 | 5.32 |  |
| O=C1NCc2c1cc(NCCCc1ccccc1)cc2-c1cc(O)cc(F)c1 | 5.70 |  |
| O=C1NCc2c1cc(OC1CN(C(=O)C3CC3)C1)cc2-c1ccc(OC(F)F)nc1 | < 5.00 | clearance [2]: 6.3 mL/min/kg; Vd [3]: 1.4 L/kg; half-life [4]: 3.7 h |
| O=C1NCc2c1cc(NCCCN1CCOCC1)cc2-c1cccc(O)c1 | < 4.30 | pIC50 [5]: 4.60; pIC50 [6]: 5.29 |
| O=C1NCc2c1cc(NCCCc1ccccc1)cc2-c1cccc(O)c1 | 5.36 |  |
